Source: EP3800188A1, “SUBSTITUTED PYRAZOLOPYRIMIDINES AS IRAK4 INHIBITORS” (Bayer AG, priority 2019, dated 2021)

Target: T1, human IRAK4 (Homo sapiens, UniProt Q9NWZ3)
T1 construct: GST (N); made in house; host or cells: baculovirus-infected Hi5 (BTI-TN-5B1-4) insect cells
T1 sequence (Q9NWZ3 1-460): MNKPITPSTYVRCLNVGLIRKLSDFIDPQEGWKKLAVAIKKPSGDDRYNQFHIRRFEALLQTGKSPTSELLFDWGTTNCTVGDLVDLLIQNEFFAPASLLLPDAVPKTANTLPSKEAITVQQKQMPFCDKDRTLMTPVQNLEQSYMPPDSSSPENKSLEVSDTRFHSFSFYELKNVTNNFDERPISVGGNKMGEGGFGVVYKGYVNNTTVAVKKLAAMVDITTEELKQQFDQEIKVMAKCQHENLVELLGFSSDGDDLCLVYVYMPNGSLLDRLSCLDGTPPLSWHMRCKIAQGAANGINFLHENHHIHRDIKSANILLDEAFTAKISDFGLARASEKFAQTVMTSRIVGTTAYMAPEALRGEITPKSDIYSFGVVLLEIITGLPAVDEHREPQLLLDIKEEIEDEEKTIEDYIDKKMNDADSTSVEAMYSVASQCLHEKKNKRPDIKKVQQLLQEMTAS
Experiment: Human IRAK4 kinase activity inhibition assay (IRAK4 TR-FRET assay)
Type: biochemical
Details: 1 mM ATP, GST-human IRAK4, average or median values
Summary of the method: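 Signal was the 665/620 nm emission ratio from a europium anti-mouse-IgG, anti-phosphoserine antibody and streptavidin-XL665 complex formed over 1 h at 22°C. It was scaled between no-enzyme (100%) and no-compound (0%) wells. Beforehand, compounds (20 µM down to 0.073 nM, 11 points) sat 15 min with roughly 0.2 nM insect-cell-expressed GST-human IRAK4 before phosphorylation of a biotinylated peptide substrate.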

Compound	IC50
CS(=O)(=O)CC1CN(c2nc(N[C@@H]3CNC(=O)C3)nc3c2cnn3-c2cccc(C(F)(F)F)c2)C1 [Example I-35, (4S)-4-[(4-{3-[(methylsulfonyl)methyl]azetidin-1-yl}-1-[3-(trifluoromethyl)phenyl]-1H-pyrazolo[3,4-d]pyrimidin-6-yl)amino]pyrrolidin-2-one]	0.0165 µM
CN1CC[C@H](Nc2nc(N3CC(CS(C)(=O)=O)C3)c3cnn(-c4cccc(C(F)(F)F)c4)c3n2)C1 [Example I-36, N-[(3S)-1-methylpyrrolidin-3-yl]-4-{3-[(methylsulfonyl)methyl]azetidin-1-yl}-1-[3-(trifluoromethyl)phenyl]-1H-pyrazolo[3,4-d]pyrimidin-6-amine]	0.045 µM
CN(C)C1(C)CN(c2nc(N[C@@H]3CNC(=O)C3)nc3c2cnn3-c2cccc(C(F)(F)F)c2)C1 [Example I-38, (4S)-4-({4-[3-(dimethylamino)-3-methylazetidin-1-yl]-1-[3-(trifluoromethyl)phenyl]-1H-pyrazolo[3,4-d]pyrimidin-6-yl}amino)pyrrolidin-2-one]	0.0162 µM
CN(C)C1(C)CN(c2nc(NC3CCS(=O)(=O)CC3)nc3c2cnn3-c2cccc(C(F)(F)F)c2)C1 [Example I-39, 4-[3-(dimethylamino)-3-methylazetidin-1-yl]-N-(1,1-dioxidotetrahydro-2H-thiopyran-4-yl)-1-[3-(trifluoromethyl)phenyl]-1H-pyrazolo[3,4-d]pyrimidin-6-amine]	0.0245 µM
CC1(O)CN(c2nc(N[C@@H]3CCN(S(C)(=O)=O)C3)nc3c2cnn3-c2cccc(C(F)(F)F)c2)C1 [Example I-41-1, 3-methyl-1-(6-{[(3R)-1-(methylsulfonyl)pyrrolidin-3-yl]amino}-1-[3-(trifluoromethyl)-phenyl]-1H-pyrazolo[3,4-d]pyrimidin-4-yl)azetidin-3-ol]	0.25 µM
CC1(O)CN(c2nc(N[C@H]3CCN(S(C)(=O)=O)C3)nc3c2cnn3-c2cccc(C(F)(F)F)c2)C1 [Example I-41-2, 3-methyl-1-(6-{[(3S)-1-(methylsulfonyl)pyrrolidin-3-yl]amino}-1-[3-(trifluoromethyl)-phenyl]-1H-pyrazolo[3,4-d]pyrimidin-4-yl)azetidin-3-ol]	0.4 µM
CN(C)C1CN(c2nc(NC3CCS(=O)(=O)CC3)nc3c2cnn3-c2cccc(C(F)(F)F)c2)C1 [Example I-42, 4-[3-(dimethylamino)azetidin-1-yl]-N-(1,1-dioxidotetrahydro-2H-thiopyran-4-yl)-1-[3-(trifluoromethyl)phenyl]-1H-pyrazolo[3,4-d]pyrimidin-6-amine]	0.032 µM
CC1(Nc2nc(N3CC(N4CCOCC4)C3)c3cnn(-c4cccc(C(F)(F)F)c4)c3n2)CCS(=O)(=O)C1 (centres unmarked) [Example I-43, N-(3-methyl-1,1-dioxidotetrahydrothiophen-3-yl)-4-[3-(morpholin-4-yl)azetidin-1-yl]-1-[3-(trifluoromethyl)phenyl]-1H-pyrazolo[3,4-d]pyrimidin-6-amine]	0.28 µM
CN(C)C1CN(c2nc(N[C@@H]3CNC(=O)C3)nc3c2cnn3-c2cccc(C(F)(F)F)c2)C1 [Example I-44, (4S)-4-({4-[3-(dimethylamino)azetidin-1-yl]-1-[3-(trifluoromethyl)phenyl]-1H-pyrazolo-[3,4-d]pyrimidin-6-yl}amino)pyrrolidin-2-one]	0.0157 µM
O=C(O)CC1CN(c2nc(N[C@@H]3CNC(=O)C3)nc3c2cnn3-c2cccc(C(F)(F)F)c2)C1 [Example I-50, [1-(6-{[(3S)-5-oxopyrrolidin-3-yl]amino}-1-[3-(trifluoromethyl)phenyl]-1H-pyrazolo[3,4-d]pyrimidin-4-yl)azetidin-3-yl]acetic acid]	0.0484 µM
O=S1(=O)CCN(C2CN(c3nc(NC4CC4)nc4c3cnn4-c3cccc(C(F)(F)F)c3)C2)CC1 [Example I-53, N-cyclopropyl-4-[3-(1,1-dioxidothiomorpholin-4-yl)azetidin-1-yl]-1-[3-(trifluoromethyl)-phenyl]-1H-pyrazolo[3,4-d]pyrimidin-6-amine]	0.0998 µM
CN(C)C1CN(c2nc(NC3CC(F)(F)C3)nc3c2cnn3-c2cccc(C(F)(F)F)c2)C1 [Example I-54, N-(3,3-difluorocyclobutyl)-4-[3-(dimethylamino)azetidin-1-yl]-1-[3-(trifluoromethyl)-phenyl]-1H-pyrazolo[3,4-d]pyrimidin-6-amine]	0.297 µM
CS(=O)(=O)[C@H]1C[C@@H](Nc2nc(N3CC(N4CCOCC4)C3)c3cnn(-c4cccc(C(F)(F)F)c4)c3n2)C1 [Example I-55, N-[cis-3-(methylsulfonyl)cyclobutyl]-4-[3-(morpholin-4-yl)azetidin-1-yl]-1-[3-(trifluoromethyl)phenyl]-1H-pyrazolo[3,4-d]pyrimidin-6-amine]	0.0156 µM
CC(C)(O)C1CCN(c2nc(N[C@H]3C[C@@](O)(C(F)(F)F)C3)nc3c2cnn3-c2cccc(C(F)(F)F)c2)CC1 [Example I-63, trans-3-({4-[4-(2-hydroxypropan-2-yl)piperidin-1-yl]-1-[3-(trifluoromethyl)phenyl]-1H-pyrazolo[3,4-d]pyrimidin-6-yl}amino)-1-(trifluoromethyl)cyclobutanol]	0.0306 µM
CC(C)(O)C1CCN(c2nc(N[C@@H]3CN4CCC3CC4)nc3c2cnn3-c2cccc(C(F)(F)F)c2)CC1 [Example I-64-2]	0.0589 µM
CC(C)(O)C1CCN(c2nc(N[C@H]3C[C@@](C)(C(=O)O)C3)nc3c2cnn3-c2cccc(C(F)(F)F)c2)CC1 [Example I-66, cis-3-({4-[4-(2-hydroxypropan-2-yl)piperidin-1-yl]-1-[3-(trifluoromethyl)phenyl]-1H-pyrazolo[3,4-d]pyrimidin-6-yl}amino)-1-methylcyclobutanecarboxylic acid]	0.138 µM
O[C@H]1COC[C@@H]1Nc1nc(N2CC(N3CCOCC3)C2)c2cnn(-c3cccc(C(F)(F)F)c3)c2n1 [Example I-69, (3R,4S)-4-({4-[3-(morpholin-4-yl)azetidin-1-yl]-1-[3-(trifluoromethyl)phenyl]-1H-pyrazolo[3,4-d]pyrimidin-6-yl}amino)tetrahydrofuran-3-ol]	0.0262 µM
CS(=O)(=O)C1CN(c2nc(N[C@H]3C[C@](C)(N)C3)nc3c2cnn3-c2cccc(C(F)(F)F)c2)C1 [Example I-71, trans-1-methyl-N^3-{4-[3-(methylsulfonyl)azetidin-1-yl]-1-[3-(trifluoromethyl)phenyl]-1H-pyrazolo[3,4-d]pyrimidin-6-yl}cyclobutane-1,3-diamine]	0.0153 µM
CC1(O)CCN(C2CN(c3nc(NC4CCS(=O)(=O)CC4)nc4c3cnn4-c3cccc(C(F)(F)F)c3)C2)CC1 [Example I-80, 1-(1-{6-[(1,1-dioxidotetrahydro-2H-thiopyran-4-yl)amino]-1-[3-(trifluoromethyl)phenyl]-1H-pyrazolo[3,4-d]pyrimidin-4-yl}azetidin-3-yl)-4-methylpiperidin-4-ol]	0.0114 µM
CCS(=O)(=O)N1CC(Nc2nc(N3CC(N4CCOCC4)C3)c3cnn(-c4cccc(C(F)(F)F)c4)c3n2)C1 [Example I-81, N-[1-(ethylsulfonyl)azetidin-3-yl]-4-[3-(morpholin-4-yl)azetidin-1-yl]-1-[3-(trifluoromethyl)phenyl]-1H-pyrazolo[3,4-d]pyrimidin-6-amine]	0.0832 µM
